For one data set, the system named is Candida albicans. Put plainly: Antifungal activity against Candida albicans NCIM 3557 after 48 hr by agar streak dilution method. Type of data set: functional. The note with it: NCIM 3557, 48 h.
The nature of data set [1]: Acute toxicity in po dosed Mus musculus (mouse). The note with it: in vivo. It is filed as organism-based.

In brackets after ≈: the same amount, converted by molar mass.

The molecule `CN(Cc1cc2ccccc2o1)Cc1cccc2cccnc12` had an MIC against Candida albicans greater than 100 µg/mL.

In the case of `CN(Cc1nc2ccccc2[nH]1)Cc1cccc2cccnc12`, the minimum inhibitory concentration (MIC) against Candida albicans was found to be 40 µg/mL (≈ 132 µM).

`CN(Cc1ccc([N+](=O)[O-])cc1)Cc1cccc2cccnc12` returned an MIC against Candida albicans of 25 µg/mL (≈ 81.3 µM). In data set [1], this molecule had an LD50 greater than 2000 mg/kg.

`CN(Cc1nc2cc([N+](=O)[O-])ccc2[nH]1)Cc1cccc2cccnc12` showed a minimal inhibitory concentration (MIC) in the data set on Candida albicans of 25 µg/mL (≈ 72 µM). Moreover, the 50% lethal dose (LD50) in data set [1] is greater than 2000 mg/kg.

As for `CN(Cc1ccc(Cl)cc1)Cc1cccc2cccnc12`, the MIC in the data set with Candida albicans came to 75 µg/mL (≈ 253 µM).

Regarding `CN(Cc1ccc(-c2ccccc2C#N)cc1)Cc1cccc2cccnc12`, the minimal inhibitory concentration (MIC) in the data set with Candida albicans was greater than 100 µg/mL.

`Cc1ccc2[nH]c(CN(C)Cc3cccc4cccnc34)nc2c1` displayed an MIC with Candida albicans greater than 100 µg/mL.

Molecule `CN(Cc1cccc2cccnc12)Cc1cccc2cccnc12` gave an MIC against Candida albicans of 4 µg/mL (≈ 12.8 µM). The molecule also came in with an LD50 in data set [1] of 700 mg/kg.

The molecule `CN(Cc1ccc2ccccc2c1)Cc1cccc2cccnc12` yielded an MIC against Candida albicans of 8 µg/mL (≈ 25.6 µM). The same molecule returned an LD50 in data set [1] greater than 2000 mg/kg.

Turning to `CN(Cc1nc2cc(Cl)ccc2[nH]1)Cc1cccc2cccnc12`, the MIC against Candida albicans was determined as 10 µg/mL (≈ 29.7 µM). Moreover, the LD50 in data set [1] was greater than 2000 mg/kg.

In general, MIC refers to the lowest concentration that inhibits growth of the organism. The low end stands for a more susceptible organism, the high end for a less susceptible organism. A word on the LD50: it is the dose at which mortality reaches 50%. Read a high LD50 as a less toxic substance.

The record behind these values is ChEMBL document CHEMBL3045756, “Design, synthesis, antifungal activity, and ADME prediction of functional analogues of terbinafine” (Med Chem Res, 2009).
